Test results: patent EP3177150B1, “A COMBINATION OF VITAMIN D AND ZINC AND ITS USE” (Société des Produits Nestlé S.A., priority 2014, dated 2016)
Like-named read-outs stand apart in the source and are kept apart here.

What was measured:
[1] = system: L6 differentiated muscle cells
Protocol: The effect of zinc and vitamin D on glucose uptake in L6 differentiated muscle cells was measured after short (2hours) and long term (24 hours) incubations.
Ingredient J was tested at 10 µM and 20 µM.
Ingredient K was tested at 1 nM and 10 nM.
Ingredient J was prepared in water and stored at -20°C (mother solution at 2 M) and ingredient K was prepared in DMSO and stored at -20°C (mother solution at 0.01 mM). The day of the experiment, the ingredients were diluted in a serum-free medium (DMEM) containing 5.5 mM D-glucose to achieve the final tested concentrations and 0.1 % of DMSO.
L6 myoblasts were maintained in growth medium or DMEM 25 mM glucose supplemented with 10 % of fetal bovine serum (FBS), 100 U/ml penicillin, and 100 µg/ml streptomycin. For the glucose uptake study, cells were grown on 24 well plates at a density of 1000-1500 cells/well in 0.5 mL of growth medium. Five days after plating, the differentiation induction into myotubes was carried out in DMEM 25 mM glucose containing 2 % FBS, 100 U/ml penicillin, and 100 µg/ml streptomycin at 37°C under a 5 % CO2 atmosphere. The culture medium was changed every other day.
For short term incubation (2 hours), the day prior to the test, the culture medium was replaced by DMEM 25 mM D-glucose containing 0.25 % BSA, 100 U/ml penicillin, and 100 µg/ml streptomycin. The day after and prior to the test, cells were washed and incubated in DMEM containing 5.5 mM D-glucose, 0.34 % BSA in the presence of the ingredients for 2 hours with and without insulin (100 nM).
For long term incubation (24 hours), the day prior to the test, cells were pre-incubated in the presence of the tested ingredients (ingredient J, K, or a combination thereof) for 18 hours in DMEM 25 mM D-glucose containing 0.25 % BSA, 100 U/ml penicillin, and 100 µg/ml streptomycin in the absence of insulin. The day after and prior to the test, cells were washed and incubated in the presence of the tested ingredients for 6 hours more in DMEM containing 5.5 mM D-glucose, 0.34 % BSA without insulin. Insulin (100 nM) was added for the last 2 hours.
In normal and physiopathological conditions, glucose uptake was measured by incubation of the cells with radiolabelled 2-deoxy-D-[1,2 3H] glucose for 15 min. Glucose uptake was arrested by two washing steps in ice-cold PBS 1X. Then cells were solubilized in 0.1 N NaOH for 30 min. Cell associated radioactivity was then counted and protein quantification was determined using the coloric Lowry method.
Each condition was tested in triplicate. Insulin (100 and 1000 nM / 2 hours) and Metformin (1.5 mM / 24 hours) were used as positive controls.
Results are expressed in pmol glucose incorporated / min / mg protein and in % of control or basal condition or insulin 0 nM (100 %).
A statistical analysis allowing multiple comparisons (one way ANOVA followed by a Dunnett's t test; * P < 0.05, **P < 0.01, ***P < 0.001 versus control condition) was carried out.

[2] = system: insulin resistant L6 differentiated muscle cells; test: glucose uptake (radiolabelled 2-deoxy-D-glucose) in insulin resistant L6 differentiated muscle cells (Palmitate exposure); format: cell-based
Protocol: Each condition was tested in triplicate.

[3] = long term incubation (24 hrs), absence of insulin
[4] = long term incubation (24 hrs), presence of insulin (100 nM, last 2 hours)
[5] = short term incubation (2 hrs), absence of insulin, J 10 and 20 µM, K 1 and 10 nM, versus control
[6] = short term incubation (2 hrs), presence of insulin (100 nM), J 10 and 20 µM, K 1 and 10 nM
[7] = insulin resistant cells (Palmitate 6 hours), short term incubation (2 hrs), absence of insulin
[8] = insulin resistant cells (Palmitate 6 hours), short term incubation (2 hrs), presence of insulin (100 nM)
[9] = insulin resistant cells, long term incubation (24 hrs), absence of insulin
[10] = insulin resistant cells, long term incubation (24 hrs), presence of insulin (100 nM, last 2 hours)

Compound	glucose uptake [1, 3]	glucose uptake [1, 4]	glucose uptake [1, 5]	glucose uptake [1, 6]	glucose uptake [2, 7]	glucose uptake [2, 8]	glucose uptake [2, 9]	glucose uptake [2, 10]
C=C1/C(=C\C=C2/CCC[C@]3(C)[C@@H]([C@H](C)CCCC(C)(C)O)CC[C@@H]23)C[C@@H](O)C[C@@H]1O [ingredient K, 1,25-dihydroxyvitamin D3]	no increases or a slight but not significant increase	No increase or a slight but not significant increase	significant increases	did not increase insulin-induced glucose uptake	significant increases	did not increase insulin-induced glucose uptake	no increases or a slight but not significant increase	No increase or a slight but not significant increase
[Cl-].[Cl-].[Zn+2] [ingredient J, zinc chloride]	no increase or a slight but not significant increase	no increase or a slight but not significant increase	no increase or a slight but not significant increase	no increase or a slight but not significant increase	no increase or a slight but not significant increase	no increase or a slight but not significant increase	no increase or a slight but not significant increase	no increase or a slight but not significant increase
